Assay results published in US10881060B2, “Endophytes and related methods” (Agriculture Victoria Services PTY LTD, priority 2010, dated 2021).

Test system: N. lolii (strain ST) mycelia
Assay: Colchicine kill curve of endophyte mycelia
Format: cell-based
Conditions: grown 21 days
Description: Experiments were conducted to determine the range of colchicine concentrations in which the mycelia of the fungal endophyte N. lolii (strain ST) would grow successfully. Mycelia were grown in colchicine concentrations ranging from 0% to 1% for 21 days and monitored for growth (FIG. 15). At greater than or equal to 0.2% colchicine mycelium growth halted whereas at 0.1% or less colchicine mycelium growth was prolific.

Compound: COc1cc2c(c(OC)c1OC)-c1ccc(OC)c(=O)cc1[C@@H](NC(C)=O)CC2 [colchicine]
- Colchicine concentration at which mycelium growth halted: greater than or equal to 0.2%
- Colchicine concentration at which mycelium growth was prolific: ≤ 0.1%
